According to article PMC6361973, “The NOP-1 peptide derived from the central regulator of ethylene signaling EIN2 delays floral senescence in cut flowers” (Scientific Reports, 2019):

Experiments:
flower senescence = conditions: cited from earlier work; for prevention of the effects of exogenous ethylene on flower senescence: during transport and storage
ethylene biosynthesis = conditions: cited from earlier work
Description: Consequently, a number of commercial products based o ...

cut roses (Rosa hybrida) = test: Senescence / vase life of cut roses; type: in vivo; conditions: 1 mM silver nitrate or 0.5 mM NOP-1 in vase water; untreated controls ended vase life on day 9; six flowers per treatment
Description: To clarify whether NOP-1 also has the potential to serve as an inhibitor of senescence in cut flowers, we applied the peptide on cut carnations (Dianthus caryophyllus) and analyzed the effect on floral senescence in this model ethylene response system[9],[13],[17],[30]. In analogy to treatment with the chemical senescence inhibitor STS containing silver ions as active ingredient which target plant ethylene receptors[31] the peptide was directly supplied to the vase water. Senescence was monitored visually throughout the experiment and quantified by changes observed in petal size and/or color (Fig. 1A,B). […]
Figure 2 Effect of small molecule inhibitors of ethylene signaling on flower senescence of cut roses. […] (B) Quantitative analysis of color change in petals after treatment with silver salt, NOP-1 peptide or buffer-only. […]
Cut flowers of carnations (Dianthus caryophyllus) and rose (Rosa hybrida), graded for marketable quality, were obtained from a local flower producer. […] Progression of senescence was recorded photographically for a period of 15 days. […] Changes in petal size and color were quantified using ImageJ (32 bit v1.51t.). Relative discoloration of petals was quantified by drawing multiple lines across each flower (petals only) and calculating the average values for red (R), green (G) and blue (B). […]

[1] = test system: cut carnations (Dianthus caryophyllus); test: Senescence / vase life of cut carnations; type: in vivo
Description: To clarify whether NOP-1 also has the potential to serve as an inhibitor of senescence in cut flowers, we applied the peptide on cut carnations (Dianthus caryophyllus) and analyzed the effect on floral senescence in this model ethylene response system[9],[13],[17],[30]. In analogy to treatment with the chemical senescence inhibitor STS containing silver ions as active ingredient which target plant ethylene receptors[31] the peptide was directly supplied to the vase water. Senescence was monitored visually throughout the experiment and quantified by changes observed in petal size and/or color (Fig. 1A,B). […] To further substantiate the effect of the peptide biological on floral senescence observed with the carnation model system, we used roses as another species of highly ethylene sensitive ornamental plants. […] The untreated controls completely ended their vase life on day 9 due to these morphological changes.
Figure 1 Effect of small molecule inhibitors of ethylene signaling on flower senescence of cut carnations. (A) Visual images of carnation cut flowers treated with senescence inhibitor silver nitrate or peptide NOP-1. Representative photos of carnation petals treated with 1 mM silver nitrate or 0.5 mM NOP-1 on DAT 0, 3, 6, 9, 12 and 15. […] (B) Quantitative analysis of flower size (left) and petal color change (right) of carnation flowers after treatment with silver salt, NOP-1 peptide or buffer-only. […]
Cut flowers of carnations (Dianthus caryophyllus) and rose (Rosa hybrida), graded for marketable quality, were obtained from a local flower producer. […] Progression of senescence was recorded photographically for a period of 15 days. […] Changes in petal size and color were quantified using ImageJ (32 bit v1.51t.). Relative discoloration of petals was quantified by drawing multiple lines across each flower (petals only) and calculating the average values for red (R), green (G) and blue (B). […] Relative size of flowers was quantified using a macro that specifically recognizes the flower (petals + sepals) but not the flower stem with flower size in pixel² as the output. […]

[2] = molecular target: Dianthus caryophyllus ethylene receptor DcETR1 (Dianthus caryophyllus); test: MST; NOP-1 unlabelled, titrated from 100 µM to 3 nM in 100 mM potassium phosphate buffer, 300 mM NaCl, 0.015% FosCholine-16, to 50 nM Alexa488-labelled DcETR1; Monolith NT.115, 50% MST power; triplicates
Chain of Dianthus caryophyllus ethylene receptor DcETR1 (Dianthus caryophyllus) (Q9M7M1 other isoform, or with tags, fused parts or gaps): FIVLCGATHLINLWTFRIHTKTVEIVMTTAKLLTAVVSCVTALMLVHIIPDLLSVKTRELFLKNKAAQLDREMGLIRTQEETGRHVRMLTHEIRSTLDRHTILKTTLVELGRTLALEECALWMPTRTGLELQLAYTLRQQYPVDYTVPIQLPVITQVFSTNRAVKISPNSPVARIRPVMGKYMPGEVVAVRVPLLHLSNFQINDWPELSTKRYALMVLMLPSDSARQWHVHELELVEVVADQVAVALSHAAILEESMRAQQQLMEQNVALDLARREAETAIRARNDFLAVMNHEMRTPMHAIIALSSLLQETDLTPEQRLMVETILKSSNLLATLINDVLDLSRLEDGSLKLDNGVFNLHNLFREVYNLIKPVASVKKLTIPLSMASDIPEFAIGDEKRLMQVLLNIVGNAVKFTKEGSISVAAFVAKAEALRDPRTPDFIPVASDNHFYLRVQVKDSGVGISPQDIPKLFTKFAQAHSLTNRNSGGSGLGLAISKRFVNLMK

[3] = test system: carnation ethylene receptor DcETR1; test: Microscale thermophoresis binding to carnation ethylene receptor DcETR1; parameters: species or system Dianthus caryophyllus; conditions: MST; denatured using 2% (w/v) SDS and 40 mM DTT in the assay buffer; triplicates
Description: To elucidate the mode of action of NOP-1 on flower senescence and to determine whether the peptide biological works by the same molecular mechanism as determined for NOP-1 controlled ripening delay, we initiated interaction studies of the carnation ethylene receptor DcETR1, the central regulator of the ethylene signaling cascade EIN2 and the NOP-1 peptide. To this end, DcETR1 was cloned in E. coli, expressed and purified according to protocols established in our lab[32] for ethylene receptors from Arabidopsis thaliana, Physcomitrella patens, tomato and apple (Supplementary Fig. S1). […] To determine binding affinity and dissociation constants of the purified recombinant proteins and the NOP-1 peptide we used microscale thermophoresis. […] Consequently, targeting this interaction by small-molecule modulators has the potential to shut down ethylene signaling and related plant responses. Therefore, we tested binding of the ripening delaying peptide NOP-1 identified in previous studies to target the ETR1-EIN2 complex with our purified carnation receptor DcETR1. […] The precise interaction site of NOP-1 at the Arabidopsis ETR1 receptor was recently resolved in our lab by molecular and computational studies. […]

[4] = molecular target: Dianthus caryophyllus ethylene receptor DcETR1 (Dianthus caryophyllus); test: MST; AtEIN2^479-1294 unlabelled, titrated from 1457.5 nM to 0.7 nM in 50 mM potassium phosphate (pH 7.8), 300 mM NaCl, 0.015% FosCholine-16, to 50 nM Alexa488-labelled DcETR1; Monolith NT.115, 60% MST power; triplicates
[5] = literature, reference not given

Molecule: CC1=CC1 [1-MCP, 1-methylcyclopropene]
- inhibition of ethylene action at 0 °C (flower senescence; 0 °C): almost no inhibition
- inhibition of ethylene action at 20 °C (flower senescence; 20 °C): complete inhibition
- delay of flower senescence on daily application (flower senescence; applied on a daily basis, gaseous): significantly delayed flower senescence
- effect of repetitive treatments on vase life and floral senescence of cut flowers (flower senescence; repetitive treatments with the gaseous inhibitor): marked increase in vase life and efficiently blocked floral senescence of cut flower
- duration of senescence control compared with silver ions (flower senescence; single treatment, literature, reference not given): does not control senescence for as long as silver ions
- efficiency as ethylene action inhibitor (flower senescence; very small concentrations): highly efficient at very small concentrations

Molecule: NOCC(=O)O [AOA, amino-oxyacetic acid]
- prevention of the effects of exogenous ethylene on flower senescence (flower senescence; [5]): ineffective
- blocking of ethylene production that accompanies senescence (ethylene biosynthesis): effective in blocking ethylene production

Molecule: NCCO/C=C/[C@H](N)C(=O)O [AVG, amino-ethoxyvinyl glycine]
- prevention of the effects of exogenous ethylene on flower senescence (flower senescence; [5]): ineffective
- blocking of ethylene production that accompanies senescence (ethylene biosynthesis): effective in blocking ethylene production

Molecule: O=[N+]([O-])[O-].[Ag+] [silver salt, silver nitrate]
- prolongation of vase life relative to buffer controls, cut roses (cut roses (Rosa hybrida)): 6 to 8 days
- efficacy compared with the other treatment, cut carnations (in words) ([1]; 0.5 mM NOP-1 vs 1 mM silver salt (AgNO3), entire trial period): noticeably more efficient in extending the vase life of cut carnations than the peptide biological
- signs of petal senescence after 15 days, cut carnations ([1]; 1 mM silver salt (AgNO3) in vase water, 50 mM Tris/Acetic acid pH 8, 15 days, six flowers): almost no signs of senescence after 15 days
- delay of petal senescence in cut carnations (in words) ([1]; 1 mM silver salt (AgNO3) in vase water, 50 mM Tris/Acetic acid pH 8, six flowers, vs buffer controls senescent after 6 days): delays the appearance of these morphological manifestations by several days

Molecule: NOP-1 peptide
- Kd [2]: 3490 nM

B1: AtEIN2^479-1294 (domain or fragment)
chain: NALSYPSVQEEEIERTETRRNEDESIVRLESRVKDQLDTTSVTSSVYDLPENILMTDQEIRSSPPEERELDVKYSTSQVSSLKEDSDVKEQSVLQSTVVNEVSDKDLIVETKMAKIEPMSPVEKIVSMENNSKFIEKDVEGVSWETEEATKAAPTSNFTVGSDGPPSFRSLSGEGGSGTGSLSRLQGLGRAARRHLSAILDEFWGHLYDFHGQLVAEARAKKLDQLFGTDQKSASSMKADSFGKDISSGYCMSPTAKGMDSQMTSSLYDSLKQQRTPGSIDSLYGLQRGSSPSPLVNRMQMLGAYGNTTNNNNAYELSERRYSSLRAPSSSEGWEHQQPATVHGYQMKSYVDNLAKERLEALQSRGEIPTSRSMALGTLSYTQQLALALKQKSQNGLTPGPAPGFENFAGSRSISRQSERSYYGVPSSGNTDTVGAAVANEKKYSSMPDISGLSMSARNMHLPNNKSGYWDPSSGGGGYGASYGRLSNESSLYSNLGSRVGVPSTYDDISQSRGGYRDAYSLPQSATTGTGSLWSRQPFEQFGVAERNGAVGEELRNRSNPINIDNNASSNVDAEAKLLQSFRHCILKLIKLEGSEWLFGQSDGVDEELIDRVAAREKFIYEAEAREINQVGHMGEPLISSVPNCGDGCVWRADLIVSFGVWCIHRVLDLSLMESRPELWGKYTYVLNRLQGVIDPAFSKLRTPMTPCFCLQIPASHQRASPTSANGMLPPAAKPAKGKCTTAVTLLDLIKDVEMAISCRKGRTGTAAGDVAFPKGKENLASVLKRYKRRLSNKPVGMNQDGPGSRKNVTAYGSLG
- interaction with chemically denatured DcETR1 (negative control) [3]: no interaction
- Kd [4]: 136 nM
